# Columns and labels:
# neuroblastoma cell lines = conditions: cited from earlier work
# DAOY = assay: Side population (Hoechst 33342 excretion) flow cytometry; type: cell-based
# Procedure: (§1) The ability to excrete Hoechst dye, which defines SP (also known as “side population”) in flow cytometric analyses, is another marker of tumor-initiating CSC in the blood and brain (7, 8, 20). SP was therefore analyzed to obtain a second measure of the effects of Notch on CSC.
# (§2) Flow cytometric analysis of S-phase fraction and cell cycle kinetics was performed using a FACSCalibur (Becton Dickinson, San Jose, Calif.) with CELL Quest, version 3.3 software (15). CD133 studies were performed using the same instrument, with antibodies from Miltenyi (Miltenyi Biotec, Auburn, Calif.) according to the manufacturer's instructions. […] Prior to analysis, cells were washed and resuspended in 2 μg/ml PI (Sigma, St. Louis, Mo.). […] To ensure proper identification of SP cells, cells were incubated as above with the addition of 50 μM verapamil (Sigma).
# D425Med = assay: as above; type: cell-based
# Procedure: as §1, §2
# D283Med = assay: as above; type: cell-based
# Procedure: as §1, §2
SMILES,side population (neuroblastoma cell lines),Hoechst excretion (side population) (DAOY),side population (D425Med),side population (D283Med)
O=C1c2c(O)ccc(O)c2C(=O)c2c(NCCNCCO)ccc(NCCNCCO)c21 [Mitoxantrone],increases the side population,,,
"COc1ccc(CCN(C)CCCC(C#N)(c2ccc(OC)c(OC)c2)C(C)C)cc1OC (stereo not shown) [verapamil, reference compound]",,abolished Hoechst excretion,ablated,ablated

# Reference: US20140227173A1, “CANCER TREATMENT WITH GAMMA-SECRETASE INHIBITORS” (The Johns Hopkins University, priority 2006, published 2014)
